Measured values reported in US4613604A, “Hydroxymethyl derivatives of 5-benzylacyclouridine and 5-benzoyloxybenzylacyclouridine and their use as potentiators for 5-fluoro-2'-deoxyuridine” (Brown University Research Foundation, priority 1985, dated 1986).
“And” between values parts separate entries of the source, which are not always exact repeats. Equal entries are not always repeated. Where two headings read alike, the source gives them in different places.

How the values were obtained:
[1] = background statement, in words; cited from earlier work
uridine phosphorylase [2] = settings: among the acyclouridines developed; cited from earlier work
[3] = system: cleavage of FdUrd in certain tumor extracts; settings: cited from earlier work
[4] = system: human pancreatic carcinoma (DAN); settings: in vitro; cited from earlier work
[5] = system: human lung carcinoma (LX-1); settings: LX-1, in vitro; cited from earlier work
[6] = system: human pancreatic carcinoma (DAN); settings: in vivo; cited from earlier work
[7] = system: human lung carcinoma (LX-1); settings: LX-1, in vivo; cited from earlier work
[8] = system: human pancreatic carcinoma (DAN); assay: Growth inhibition of pancreatic carcinoma DAN cells in culture by FdUrd with or without potentiator; format: cell-based; settings: for in vitro antineoplastic activity of FdUrd with potentiator, in words: DAN cells, combination with FdUrd; for effect of potentiator alone on the growth of DAN in culture: potentiator alone at 50 μM, no FdUrd
Protocol: Determination of the activities of HM-BAU and HM-BBAU as potentiators of FdUrd anti-neoplastic activity was carried out using a human pancreatic carcinoma (DAN) in culture. Details of the procedure are described in Chu et al., supra. Table 1 summarizes the effect of HM-BAU and HM-BBAU upon the inhibitory effect of FdUrd on the growth of pancreatic DAN cells in culture.
FdUrd alone at 0.1 and 0.3 μM inhibited the cell growth by 20% and 34% respectively.

uridine phosphorylase [9] = assay: Inhibition of uridine phosphorylase from mouse liver (105,000×g supernatant of liver homogenate); format: biochemical; settings: mouse liver enzyme; apparent Ki = Ki(1+[S]/Km); type of inhibition not characterized
Protocol: (§1) Testing of compounds HM-BAU and HM-BBAU as inhibitors of uridine phosphorylase was performed using 105,000×g supernatant of mouse liver and human liver homogenates. Enzyme assays were carried out as described in Niedzwicki et al., Biochem. Pharm. 31, 1857 (1982), supra. Apparent Ki values are related to Ki by the following equation: [formula] where Kis and Kii are the inhibition constants that would have been estimated from the replots of slope and intercept, respectively, of a Lineweaver-Burk plot vs [I]. If a compound is a competitive inhibitor with respect to the substrate uridine. Kii =.infin. and Kis =Ki. Therefore:
(§2) apparent Ki =Ki (1+[S]/Km)
(§3) Thus, the true Ki values would be lower than the apparent Ki values by a factor of (1+S/Km). It must be noted, however, that these compounds were not characterized with regard to the type of inhibition (i.e. competitive, non-competitive or uncompetitive), nor were they tested as substrates for uridine phosphorylase.

uridine phosphorylase [10] = assay: Inhibition of uridine phosphorylase from human liver (105,000×g supernatant of liver homogenate); format: biochemical; settings: for Ki: human liver enzyme, apparent Ki = Ki(1+[S]/Km), type of inhibition not characterized; for inhibition of human liver uridine phosphorylase, in words: compared with BAU and BBAU
Protocol: as §1, §2, §3

Water solubility = format: physicochemical; settings: in words
[11] = potentiator 50 μM, added 5 minutes prior to FdUrd 0.1 μM, P < 0.001 vs control, p < 0.01 from one another
[12] = potentiator 50 μM, added 5 minutes prior to FdUrd 0.3 μM

SMILES	water solubility [1]	effectiveness as uridine phosphorylase inhibitor, in words (uridine phosphorylase [2])	inhibition of cleavage of FdUrd [3]	enhancement of antineoplastic activity of FdUrd [4]	enhancement of antineoplastic activity of FdUrd [5]	enhancement of antineoplastic activity of FdUrd [6]	enhancement of antineoplastic activity of FdUrd [7]	Ki (uridine phosphorylase [9])	Ki (uridine phosphorylase [10])	inhibition of human liver uridine phosphorylase, in words (uridine phosphorylase [10])	in vitro antineoplastic activity of FdUrd with potentiator, in words [8]	% Growth Inhibition of DAN cells in culture [8, 11]	% Growth Inhibition of DAN cells in culture [8, 12]	effect of potentiator alone on the growth of DAN in culture [8]	water solubility (Water solubility)	also measured
O=c1[nH]c(=O)n(COCCO)cc1Cc1ccccc1 [BAU, 5-benzylacyclouridine]	not very water soluble	particularly effective	inhibit the cleavage of FdUrd	enhance the antineoplastic activity of FdUrd	enhance the antineoplastic activity of FdUrd	enhance the antineoplastic activity of FdUrd	enhance the antineoplastic activity of FdUrd									
O=c1[nH]c(=O)n(COCCO)cc1Cc1cccc(OCc2ccccc2)c1 [BBAU, 5-benzyloxybenzylacyclouridine]	not very water soluble	particularly effective	inhibit the cleavage of FdUrd	enhance the antineoplastic activity of FdUrd	enhance the antineoplastic activity of FdUrd	enhance the antineoplastic activity of FdUrd	enhance the antineoplastic activity of FdUrd									
O=c1[nH]c(=O)n([C@H]2C[C@H](O)[C@@H](CO)O2)cc1F [FdUrd, 5-fluoro-2'-deoxyuridine]																% Growth Inhibition of DAN cells in culture ([8]; FdUrd 0.1 μM alone, no potentiator): 20%; % Growth Inhibition of DAN cells in culture ([8]; FdUrd 0.3 μM alone, no potentiator): 34%; inhibition at 0.1 µM ([8]; Homo sapiens, FdUrd 0.1 μM alone, no potentiator): 20.2 ± 1.1%; inhibition at 0.3 µM ([8]; Homo sapiens, FdUrd 0.3 μM alone, no potentiator): 33.8 ± 1.3%; inhibition at 1 µM ([8]; Homo sapiens, FdUrd 1.0 μM alone, no potentiator): 66 ± 1.4%
O=c1[nH]c(=O)n(COC(CO)CO)cc1Cc1ccccc1 [HM-BAU, 5-Benzyl-1-[(1,3-dihydroxy-2-propoxy)methyl]uracil]								1.6 µM	2.5 µM	excellent inhibitors of this enzyme and superior to BAU and BBAU	significantly potentiated	63.4 ± 1.1% and 63%	67.8 ± 1.7% and 68%	do not affect the growth of DAN in culture	water soluble	
O=c1[nH]c(=O)n(COC(CO)CO)cc1Cc1cccc(OCc2ccccc2)c1 [HM-BBAU, 5-(m-Benzyloxybenzyl)-1-[(1,3-dihydroxy-2-propoxy)methyl]uracil]								0.32 µM	0.65 µM	excellent inhibitors of this enzyme and superior to BAU and BBAU	significantly potentiated	73.6 ± 0.3% and 74%	83.2 ± 1.3% and 83%	do not affect the growth of DAN in culture	water soluble	% Growth Inhibition of DAN cells in culture ([8]; potentiator 50 μM, added 5 minutes prior to FdUrd 0.1 μM, P < 0.001 vs control, p < 0.01 from one another, listed as HN-BBAU): 74%; % Growth Inhibition of DAN cells in culture ([8]; potentiator 50 μM, added 5 minutes prior to FdUrd 0.3 μM, listed as HN-BBAU): 83%
